Measured values published in US10328093B2, “Anthracycline formulations” (CYTRX CORPORATION, priority 2012, dated 2019).

Assay: IV Admixture stability in LR at approximately 2.4 mg/mL after reconstitution
Format: physicochemical
Settings: for pH drop: from zero to two hours
Description: To analyze DOXO-EMCH's behavior in solution, a reversed-phase (RP) HPLC method for quantitation of DOXO-EMCH and various impurities and degradation products was utilized. Samples (1.0 μL injection volume) were assayed on an HPLC system fitted with a Phenomenex Gemini C18 column 100×2.0 mm, 3 μm at a flow rate of 0.3 mL/min. The mobile phase used was an acetate/acetonitrile gradient. The degradation product EMCH could not be detected using the above HPLC method, and was therefore determined using a liquid chromatography-mass spectrometry (LC-MS) method.
IV Admixture stability studies were designed to use the reconstitution diluent found suitable in part 1 following the procedure outlined below. Briefly, to prepare an IV Admixture solution containing approximately 2.4 mg/mL DOXO-EMCH, the required volume for reconstitution was withdrawn from the IV infusion solution bag intended for final administration. The required volume for reconstitution of the respective diluent was measured and transferred into a vial of lyophilized DOXO-EMCH. The vial of DOXO-EMCH and diluent was gently swirled to dissolve the vial contents and obtain a homogeneous mixture. The reconstituted solution of drug product was inspected to ensure that the drug was completely dissolved and that no foreign matter was present. This procedure was repeated for the total number of vials required to prepare the calculated dose of DOXO-EMCH in IV infusion solution. The required volume of reconstituted DOXO-EMCH solution was then withdrawn from the drug product vials using a suitably sized syringe, and injected into the IV infution solution bag. The contents of the IV infusion solution bag were thoroughly mixed to obtain a homogeneous mixture. The IV infusion bag was then stored at room temperature and protected from light.
The IV Admixture study was performed by first removing 3 vials of 200 mg lyophilized DOXO-EMCH drug product from storage at −20° C. and allowing the vials to come to room temperature. […] Each of the vials was reconstituted as described above. The required volume of the reconstitution diluent (20 mL) was drawn into an appropriate plastic syringe using a needle and injected through the stopper of each vial. The reconstituted vial was then swirled and visually inspected for complete reconstitution to form a clear, homogeneous solution. The time required to form a clear, homogeneous solution was recorded. The required volume (20.0 mL of a 10 mg/mL constituted solution) was transferred from each reconstituted vial into the 250 mL IV Admixture solution as described above. Briefly, the required volume (20.0 mL of a 10 mg/mL constituted solution) was withdrawn using an appropriate plastic syringe and needle, the required volume of constituted drug product was transferred from each of three vials into the 250 mL IV Admixture using an appropriate plastic syringe and needle, and the contents of the IV Admixture were completely mixed to obtain a homogeneous mixture at a target concentration of approximately 2.4 mg/mL. The IV bag was weighed prior to injection of constituted drug product. […] solution, diluting with chilled HPLC method diluent to achieve a target concentration of 0.24 mg/mL, and injecting into the HPLC. Duplicate injections were made for each time point. The pH of the IV Admixture and sample prepared for HPLC analysis were also measured at each time point. The empty IV bag was weighed at study completion to calculate the actual IV Admixture solution volume in each bag.
The reconstituted solution was evaluated for color, clarity, and absence of insoluble material in the vial after every 30 seconds of mixing. Following addition of the reconstituted drug product solution to the IV bag, the resulting IV Admixture was evaluated for color, clarity, and absence of any insoluble material immediately after mixing and at each analytical time point. The amount (area %) of the degradation product doxorubicin was determined at each time point. […]

[1] = reconstituted in 50:50 ethanol:water, diluted in LR, two hour time point, average of two studies
[2] = reconstituted in LR, diluted in LR to ~2.4 mg/mL, Study #1, ambient temperature, 0 min
[3] = reconstituted in LR, diluted in LR to ~2.4 mg/mL, Study #1, ambient temperature, 30 min
[4] = reconstituted in LR, diluted in LR to ~2.4 mg/mL, Study #1, ambient temperature, 60 min
[5] = reconstituted in LR, diluted in LR to ~2.4 mg/mL, Study #1, ambient temperature, 120 min
[6] = reconstituted in LR, diluted in LR to ~2.4 mg/mL, Study #1, ambient temperature, 150 min
[7] = reconstituted in LR, diluted in LR to ~2.4 mg/mL, Study #1, ambient temperature, 240 min
[8] = reconstituted in LR, diluted in LR to ~2.4 mg/mL, Study #2, ambient temperature, 0 min
[9] = reconstituted in LR, diluted in LR to ~2.4 mg/mL, Study #2, ambient temperature, 30 min
[10] = reconstituted in LR, diluted in LR to ~2.4 mg/mL, Study #2, ambient temperature, 60 min
[11] = reconstituted in LR, diluted in LR to ~2.4 mg/mL, Study #2, ambient temperature, 90 min
[12] = reconstituted in LR, diluted in LR to ~2.4 mg/mL, Study #2, ambient temperature, 120 min
[13] = reconstituted in LR, diluted in LR to ~2.4 mg/mL, Study #2, ambient temperature, 150 min
[14] = reconstituted in SWFI (~10 mg/mL), diluted in LR IV bag to ~2.4 mg/mL, ambient temperature, 30 min
[15] = reconstituted in SWFI (~10 mg/mL), diluted in LR IV bag to ~2.4 mg/mL, ambient temperature, 60 min
[16] = reconstituted in SWFI (~10 mg/mL), diluted in LR IV bag to ~2.4 mg/mL, ambient temperature, 150 min
[17] = reconstituted in SWFI (~10 mg/mL), diluted in LR IV bag to ~2.4 mg/mL, ambient temperature, 240 min
[18] = reconstituted in ethanol:water, diluted in LR to ~2.4 mg/mL, Study #1, ambient temperature, 0 min
[19] = reconstituted in ethanol:water, diluted in LR to ~2.4 mg/mL, Study #1, ambient temperature, 30 min
[20] = reconstituted in ethanol:water, diluted in LR to ~2.4 mg/mL, Study #1, ambient temperature, 60 min
[21] = reconstituted in ethanol:water, diluted in LR to ~2.4 mg/mL, Study #1, ambient temperature, 90 min
[22] = reconstituted in ethanol:water, diluted in LR to ~2.4 mg/mL, Study #1, ambient temperature, 120 min
[23] = reconstituted in ethanol:water, diluted in LR to ~2.4 mg/mL, Study #1, ambient temperature, 150 min
[24] = reconstituted in ethanol:water, diluted in LR to ~2.4 mg/mL, Study #2, ambient temperature, 0 min
[25] = reconstituted in ethanol:water, diluted in LR to ~2.4 mg/mL, Study #2, ambient temperature, 30 min
[26] = reconstituted in ethanol:water, diluted in LR to ~2.4 mg/mL, Study #2, ambient temperature, 60 min
[27] = reconstituted in ethanol:water, diluted in LR to ~2.4 mg/mL, Study #2, ambient temperature, 120 min
[28] = reconstituted in ethanol:water, diluted in LR to ~2.4 mg/mL, Study #2, ambient temperature, 150 min
[29] = reconstituted in ethanol:water, diluted in LR to ~2.4 mg/mL, Study #2, ambient temperature, 240 min

SMILES: COc1cccc2c1C(=O)c1c(O)c3c(c(O)c1C2=O)C[C@@](O)(/C(CO)=N/NC(=O)CCCCCN1C(=O)C=CC1=O)C[C@@H]3O[C@H]1C[C@H](N)[C@H](O)[C@H](C)O1.Cl [DOXO-EMCH]
- stability of IV solutions in LR (drug product reconstituted in any of SWFI, LR, 50:50 ethanol/water, based on accumulation of doxorubicin): relatively stable for two hours or more
- pH drop (reconstituted in 50:50 ethanol:water, diluted in LR, two studies): 0.3-0.4 units
- average doxorubicin content [1]: 2.0%
- average pH [1]: 5.9
- Doxorubicin [2]: 1.10 Area %
- pH [2]: 5.99
- Doxorubicin [3]: 1.28 Area %
- pH [3]: 5.87
- Doxorubicin [4]: 1.74 Area %
- pH [4]: 5.85
- Doxorubicin [5]: 2.24 Area %
- pH [5]: 5.76
- Doxorubicin [6]: 2.93 Area %
- pH [6]: 5.75
- Doxorubicin [7]: 3.80 Area %
- pH [7]: 5.67
- Doxorubicin [8]: 1.03 Area %
- pH [8]: 6.10
- Doxorubicin [9]: 1.04 Area %
- pH [9]: 5.98
- Doxorubicin [10]: 1.68 Area %
- pH [10]: 5.94
- Doxorubicin [11]: 1.67 Area %
- pH [11]: 5.89
- Doxorubicin [12]: 2.53 Area %
- pH [12]: 5.79
- Doxorubicin [13]: 2.50 Area %
- pH [13]: 5.77
- pH drop (reconstituted in LR, diluted in LR, two studies): 0.2-0.3 units
- average pH (reconstituted in LR, diluted in LR, two hour time point, average of two studies): 5.8
- Doxorubicin (reconstituted in SWFI (~10 mg/mL), diluted in LR IV bag to ~2.4 mg/mL, ambient temperature, 0 min): 1.23 Area %
- Doxorubicin [14]: 1.40 Area %
- pH [14]: 5.98
- Doxorubicin [15]: 1.88 Area %
- pH [15]: 5.84
- Doxorubicin [16]: 3.23 Area %
- pH [16]: 5.73
- Doxorubicin [17]: 4.23 Area %
- pH [17]: 5.62
- pH drop (reconstituted in SWFI, diluted in LR): about 0.4 units
- Doxorubicin [18]: 1.0 Area %
- pH [18]: 6.22
- Doxorubicin [19]: 1.1 Area %
- pH [19]: 6.04
- Doxorubicin [20]: 1.3 Area %
- pH [20]: 5.95
- Doxorubicin [21]: 1.7 Area %
- pH [21]: 5.89
- Doxorubicin [22]: 1.9 Area %
- pH [22]: 5.83
- Doxorubicin [23]: 2.3 Area %
- pH [23]: 5.82
- Doxorubicin [24]: 1.1 Area %
- pH [24]: 6.19
- Doxorubicin [25]: 1.3 Area %
- pH [25]: 6.05
- Doxorubicin [26]: 1.5 Area %
- pH [26]: 5.99
- Doxorubicin [27]: 2.1 Area %
- pH [27]: 5.89
- Doxorubicin [28]: 2.3 Area %
- pH [28]: 5.87
- Doxorubicin [29]: 3.4 Area %
- pH [29]: 5.80
